# Assays:
# Assay type in all cases: physicochemical
# [1] = Solid form conversion of solvates on heating, drying or storage (XRPD)
# [2] = Stability of HCl salt forms at accelerated (elevated) conditions; details: for Stability at elevated conditions: Table 3
# Experimental: To further elucidate differences between the hydrochloride salt forms, their stability at accelerated conditions and their hygroscopicity was measured. The data are summarized in Table 3 together with the observations reported in Example 20.
# [3] = Dynamic vapour sorption (DVS); details: for water uptake up to 90% RH / hygroscopicity by DVS analysis: 25° C.; for water uptake up to 90% RH: 0% RH to 90% RH; for hygroscopicity by DVS analysis: up to 90% RH; for Hygroscopicity in DVS, uptake at 90% RH: Table 3, 90% RH; for solid form by XRPD analysis after DVS analysis: after DVS cycle
# Experimental: Dynamic vapour sorption (DVS) was measured using a SMS DVS Intrinsic moisture sorption analyser changing the relative humidity from 0% RH to 90% RH. The sample temperature was maintained at 25° C. The humidity was controlled by mixing streams of dry and wet nitrogen, with a total flow rate of 200 ml/min. The relative humidity was measured by a calibrated Rotronic probe (dynamic range of 1.0-100% RH), located near the sample. The weight change of the sample as a function of % RH was constantly monitored by a balance.
# Typically, 5-30 mg of sample was placed in a tared mesh stainless steel basket under ambient conditions. The sample was loaded and unloaded at 40% RH and 25° C. (typical room conditions).
# [4] = Competitive slurry experiments between different forms of Compound (I) HCl salt
# Experimental: Competitive slurry experiments between different form of Compound (I) HCl salt were performed to elucidate the relative thermodynamic stability between unsolvated crystalline forms of interest.
# The resulting slurries were stirred for 3 hours to approach equilibrium conditions at either 5 or 50° C., 500 rpm. The following solvents and solvent combinations were utilized: EtOAc, MIBK, THF, MeCN, MeOH, and Acetone.
# This dry powder mixture was mixed in a gyroscopic Turbula mixer for 2 hours. Then 50 mg aliquots of the mixture were weighed into HPLC vials and 0.5 mL of the above saturated solutions were added. The resulting suspensions were then stirred for 7 days.
# The above competitive slurries were sampled after 1 and 7 days. The samples taken after 1 day were air dried and analyzed with XRPD. The samples taken after 7 days were first analyzed in wet state (covered with a Kapton film) in the XRPD and then subjected to air drying and analyzed again.
# [5] = Competitive slurry experiments between Compound (I) form 1 and form 7; details: for relative thermodynamic stability: slurry in methanol or ethanol at 5° C., room temperature and 50° C. for one week
# Experimental: The relative thermodynamic stability of Compound (I) form 1 and Compound (I) form 7 was elucidated using competitive slurry experiments as detailed in the following.
# Step 1: Compound (I) form 1 (150 mg) and Compound (I) form 7 (150 mg) were mixed in a 20 mL vial. 40 mg (each) of this physical mixture was placed into six 2 mL vials.
# Step 2: Using the remaining 60 mg of the physical mixture, saturated solutions with methanol and ethanol, respectively, were produced. The saturated solutions were filtered off.
# Step 3: 10 volumes ([…]) of each saturated solution were added to each of the six 2 mL vials mentioned in step 1.
# Step 4: One vial for each solvent was kept at 5° C., room temperature and 50° C. for one week.
# XRPD analysis carried out on the solids yielded a pattern substantially similar to FIG. 1 for all six vials.
# [6] = Variable temperature XRPD of Compound (I) form 7; details: VT-XRPD, heating 10° C./min
# Experimental: Procedure 4 carried out under non-ambient conditions: For variable temperature (VT-XRPD) experiments the samples were prepared and analysed in an Anton Paar chromed sample holder. A heating/cooling rate of 10° C./min was used. The measurement parameters are as per the standard screening data collection method (detailed in Procedure 3 above). Measurements were taken at the following temperatures: 25, 100, 145, 150, 155, 160, 165, 170, 175, and 25° C.
# Compound (I) form 7 obtained using the procedure detailed in Example 2 was subjected to variable temperature X-ray powder diffraction (VT-XRPD), as described in Example 10 (“[…]”).
# [7] = DVS, listed as Compound (I) HCl form 2
# [8] = DVS, listed as Compound (I) HCl form 4
# [9] = DVS, listed as Compound (I) HCl form 5
# [10] = DVS, listed as Compound (I) HCl form 6
smiles,measurement,setting,value
"C1COCCO1.O=C(O)c1ccn(C(=O)N2CCC3(CCCN3Cc3ccc(C(F)(F)F)cc3N3CCCC3)CC2)n1 [Compound (I) 1,4-dioxane solvate form 1, 1-(1-(2-(pyrrolidin-1-yl)-4-(trifluoromethyl)benzyl)-1,8-diazaspiro[4.5]decane-8-carbonyl)-1H-pyrazole-3-carboxylic acid 1,4-dioxane solvate form 1]",solid form change upon drying,[1]; two hours in a vacuum oven at room temperature,transforms into Compound (I) form 1 upon drying
CC1CCCO1.Cl.O=C(O)c1ccn(C(=O)N2CCC3(CCCN3Cc3ccc(C(F)(F)F)cc3N3CCCC3)CC2)n1 [Compound (I) HCl salt 2-MeTHF solvate],solid form change upon storage,[1]; 40° C./75% RH for 7 days,transformed into Compound (I) HCl Form 2
same,solid form change upon drying,[1]; 100° C. for 10 minutes,transformed into Compound (I) HCl salt form 4
Cl.O=C(O)c1ccn(C(=O)N2CCC3(CCCN3Cc3ccc(C(F)(F)F)cc3N3CCCC3)CC2)n1 [Compound (I) HCl salt MIBK solvate],solid form change upon drying,[1]; drying the solid (conditions not given),transforms into Compound (I) HCl salt form 2 upon drying
"Cl.O=C(O)c1ccn(C(=O)N2CCC3(CCCN3Cc3ccc(C(F)(F)F)cc3N3CCCC3)CC2)n1 [Compound (I) HCl salt form 2, 1-(1-(2-(pyrrolidin-1-yl)-4-(trifluoromethyl)benzyl)-1,8-diazaspiro[4.5]decane-8-carbonyl)-1H-pyrazole-3-carboxylic acid HCl salt form 2]",Stability at elevated conditions,[2]; listed as Form 2,No change
same,stability compared with the other HCl salt forms,[2]; accelerated conditions,superior stability over Compound (I) HCl salt form 5 and form 6
same,water uptake compared with the other HCl salt forms,[3]; DVS,lowest water uptake
same,water uptake up to 90% RH,[3]; [7],0.5 % wt
same,hygroscopicity by DVS analysis,[3]; [7],slightly hygroscopic
same,"Hygroscopicity in DVS, uptake at 90% RH",[3]; listed as Form 2,(0.5 wt %
"Cl.O=C(O)c1ccn(C(=O)N2CCC3(CCCN3Cc3ccc(C(F)(F)F)cc3N3CCCC3)CC2)n1 [Compound (I) HCl salt form 4, 1-(1-(2-(pyrrolidin-1-yl)-4-(trifluoromethyl)benzyl)-1,8-diazaspiro[4.5]decane-8-carbonyl)-1H-pyrazole-3-carboxylic acid HCl salt form 4]",Stability at elevated conditions,[2]; listed as Form 4,No change
same,water uptake up to 90% RH,[3]; [8],1.4 % wt
same,hygroscopicity by DVS analysis,[3]; [8],slightly hygroscopic
same,"Hygroscopicity in DVS, uptake at 90% RH",[3]; listed as Form 4,(1.4 wt %
Cl.O=C(O)c1ccn(C(=O)N2CCC3(CCCN3Cc3ccc(C(F)(F)F)cc3N3CCCC3)CC2)n1 [Compound (I) HCl salt form 5],water uptake up to 90% RH,[3]; [9],9.2 % wt
same,hygroscopicity by DVS analysis,[3]; [9],moderately hygroscopic
same,"Hygroscopicity in DVS, uptake at 90% RH",[3]; listed as Form 5,(9.2 wt %
Cl.O=C(O)c1ccn(C(=O)N2CCC3(CCCN3Cc3ccc(C(F)(F)F)cc3N3CCCC3)CC2)n1 [Compound (I) HCl salt form 6],water uptake up to 90% RH,[3]; [10],3.1 % wt
same,hygroscopicity by DVS analysis,[3]; [10],moderately hygroscopic
same,"Hygroscopicity in DVS, uptake at 90% RH",[3]; listed as Form 6,(3.1 wt %
Cl.O=C(O)c1ccn(C(=O)N2CCC3(CCCN3Cc3ccc(C(F)(F)F)cc3N3CCCC3)CC2)n1 [Compound (I) HCl salt],XRPD ‘dry’ after 1 day,"[4]; 5 ° C., Acetone",HCl salt Form 4
same,XRPD ‘dry’ after 7 days,"[4]; 5 ° C., Acetone",HCl salt Form 4
same,XRPD ‘wet’ (Kapton film) after 7 days,"[4]; 5 ° C., Acetone",metastable solvate
same,XRPD ‘dry’ after 1 day,"[4]; 5 ° C., EtOAc",HCl salt Form 2
same,XRPD ‘dry’ after 7 days,"[4]; 5 ° C., EtOAc",HCl salt Form 2
same,XRPD ‘wet’ (Kapton film) after 7 days,"[4]; 5 ° C., EtOAc",metastable solvate
same,XRPD ‘wet’ (Kapton film) after 7 days,"[4]; 5 ° C., MIBK",metastable solvate
same,XRPD ‘dry’ after 1 day,"[4]; 5 ° C., MeCN",HCl salt Form 5
same,XRPD ‘dry’ after 7 days,"[4]; 5 ° C., MeCN",HCl salt Form 5
same,XRPD ‘wet’ (Kapton film) after 7 days,"[4]; 5 ° C., MeCN",metastable solvate
same,XRPD ‘wet’ (Kapton film) after 7 days,"[4]; 5 ° C., MeOH",metastable solvate
same,XRPD ‘dry’ after 1 day,"[4]; 5 ° C., THF",HCl salt Form 4
same,XRPD ‘dry’ after 7 days,"[4]; 5 ° C., THF",HCl salt Form 4
same,XRPD ‘wet’ (Kapton film) after 7 days,"[4]; 5 ° C., THF",metastable solvate
same,XRPD ‘dry’ after 1 day,"[4]; 50 ° C., Acetone",HCl salt Form 2
same,XRPD ‘dry’ after 7 days,"[4]; 50 ° C., Acetone",HCl salt Form 2
same,XRPD ‘wet’ (Kapton film) after 7 days,"[4]; 50 ° C., Acetone",metastable solvate
same,XRPD ‘dry’ after 1 day,"[4]; 50 ° C., EtOAc",HCl salt Form 2
same,XRPD ‘dry’ after 7 days,"[4]; 50 ° C., EtOAc",HCl salt Form 2
same,XRPD ‘wet’ (Kapton film) after 7 days,"[4]; 50 ° C., EtOAc",metastable solvate
same,XRPD ‘wet’ (Kapton film) after 7 days,"[4]; 50 ° C., MIBK",metastable solvate
same,XRPD ‘dry’ after 1 day,"[4]; 50 ° C., MeCN",HCl salt Form 5
same,XRPD ‘dry’ after 7 days,"[4]; 50 ° C., MeCN",HCl salt Form 5
same,XRPD ‘wet’ (Kapton film) after 7 days,"[4]; 50 ° C., MeCN",metastable solvate
same,XRPD ‘wet’ (Kapton film) after 7 days,"[4]; 50 ° C., MeOH",metastable solvate
same,XRPD ‘dry’ after 1 day,"[4]; 50 ° C., THF",HCl salt Form 4
same,XRPD ‘dry’ after 7 days,"[4]; 50 ° C., THF",HCl salt Form 4
same,XRPD ‘wet’ (Kapton film) after 7 days,"[4]; 50 ° C., THF",metastable solvate
"CC(C)=O.O=C(O)c1ccn(C(=O)N2CCC3(CCCN3Cc3ccc(C(F)(F)F)cc3N3CCCC3)CC2)n1 [Compound (I) acetone solvate, 1-(1-(2-(pyrrolidin-1-yl)-4-(trifluoromethyl)benzyl)-1,8-diazaspiro[4.5]decane-8-carbonyl)-1H-pyrazole-3-carboxylic acid acetone solvate]",solid form change upon heating,[1]; heating for 2 min at 175° C.,transforms into Compound (I) form 1 at elevated temperature
"O=C(O)c1ccn(C(=O)N2CCC3(CCCN3Cc3ccc(C(F)(F)F)cc3N3CCCC3)CC2)n1 [Compound (I) form 1, 1-(1-(2-(pyrrolidin-1-yl)-4-(trifluoromethyl)benzyl)-1,8-diazaspiro[4.5]decane-8-carbonyl)-1H-pyrazole-3-carboxylic acid]",relative thermodynamic stability,[5],more thermodynamically stable than Compound (I) form 7 at all temperatures tested
same,relative thermodynamic stability,"[5]; listed as 1-(1-(2-(pyrrolidin-1-yl)-4-(trifluoromethyl)benzyl)-1,8-diazaspiro[4.5]decane-8)",thermodynamically stable
same,water uptake up to 90% RH,[3]; DVS,< 1%
same,hygroscopicity by DVS analysis,[3]; DVS,largely non-hygroscopic
same,solid form by XRPD analysis after DVS analysis,[3],still Compound (I) form 1
"O=C(O)c1ccn(C(=O)N2CCC3(CCCN3Cc3ccc(C(F)(F)F)cc3N3CCCC3)CC2)n1 [Compound (I) form 7, 1-(1-(2-(pyrrolidin-1-yl)-4-(trifluoromethyl)benzyl)-1,8-diazaspiro[4.5]decane-8-carbonyl)-1H-pyrazole-3-carboxylic acid]",temperature at which conversion to Compound (I) form 1 begins,[6],160 °C
same,temperature at which exclusively Compound (I) form 1 was obtained,[6],170 °C
same,form conversion in competitive slurry,"[5]; methanol or ethanol, 5° C., room temperature, 50° C., one week",transforms into Compound (I) form 1 at all temperatures tested
same,water uptake up to 90% RH,[3]; DVS,~6%
same,hygroscopicity by DVS analysis,[3]; DVS,moderately hygroscopic
same,solid form by XRPD analysis after DVS analysis,[3],still Compound (I) form 7
